Reference: patent US20050004136A1, “Novel amidoalkyl-piperidine and amidoalkyl-piperazine derivatives useful as neurokinin receptor modulators” (priority 2000, published 2005)

Columns and labels:
[1] = system: Senktide-induced headshake; experiment: Reversal of Senktide-induced head shake in mice; format: in vivo; set-up: key: Active = a statistically significant (Mann-Whitney t-test (one-tailed)) reduction in the headshakes produced by senktide (5 mg/kg), in animals dosed with test compound 10 mg/kg po; conditions: NIH-Swiss mice, test compound 10 mg/kg po, senktide 5 mg/kg sc 45 min later, 10 min count
Description: The in vivo assay measuring the reversal of Senktide-induced headshake in mice has been previously described in the literature by Sarau, H. M., et al in J. Pharmacol. Exp. Therapeutics (2000), 295 pp 373-381.
Briefly, overnight fasted NIH-Swiss mice weighing 18-21 gms were treated with test compound or vehicle by the oral (gavage) route, at various concentrations. Forty five (45) minutes after administration, the animals are injected subcutaneously (sc) with Senktide at a concentration of 5 mg/kg. Immediately after administration of the Senktide, the animals are randomized and laced into isolated observation chambers and the number of headshakes per recorded over a ten (10) minute period. A decrease in the number of Senktide induced headshakes for test compound treated animals as compared with vehicle treated animals (analysis completed using Mann-Whitney t-test (one tailed)) was taken as an indication of anxiolytic activity for the compound.
Representative compounds of the instant invention were tested for reversal of Senktide-induced headshakes in mice, with results as listed in Table 12.

[2] = system: rats; experiment: Elevated Plus Maze (EPM) Test; format: in vivo; set-up: key: Active = statistically significant (Mann Whitney U test p < 0.05) increase in open arm time or open arm entries at 10 mg/kg po; conditions: Long-Evans Hooded rats, 10 mg/kg po, one hour after dosing
Description: (§1) Male Long-Evans Hooded rats weighing 180 to 200 grams were purchased from Charles River Inc (Portage MI). The rats were housed in groups of four at an ambient temperature of 21 to 23° C. in a room with an automated 12/12 hour light/dark cycle. The rats had access to water and a commercial rodent food ad libitum. At the time of the experiment the rats weighed 220 to 350 grams.
(§2) The assay was run with test compound or vehicle administered to the animals at time zero. Fifty minutes after administration, the animals were tested in the SMA (Spontaneous Locomotor Activity), which was completed in 10 minutes. Immediately following SMA testing, the rats were moved and tested in the EPM (elevated Plus Maze), which was also completed in ten minutes. Test compounds were suspended in an aqueous vehicle (MC) comprised of 0.5% Methylcellulose and administered p.o.
The elevated plus maze (EPM) is the most widely used animal test of anxiety. The fully quantitative computerized EPM has validity as an anxiety model from the theoretical basis and pharmacological responses. The EPM also has high ecological validity since it studies the spontaneous behavioral patterns in response to interactions with the environment.
The procedure is based on the natural aversion of rodents to explore open and high places, as well as their innate tendency for thigmotaxis. When rats are placed on the elevated-plus maze, they have a normal tendency to remain in the enclosed arms of the maze and avoid venturing into the open arms. Animals treated with typical or atypical anxiolytics show an increase in the percentage of time spent (% Time) and/or the percentage of entries made (% Entries) into the open arms.
The test apparatus used consisted of a black plastic maze with two open arms and two arms with 40 cm high walls (enclosed arms) of equal length (50 cm) extending from the center at right angles, such that arms of similar type were opposite each other. Each plus-maze was elevated approximately 60 cm above the floor. Infrared photo-beams that crossed the entrance of each arm and the center of the maze detected the exploratory activity of an animal in the maze. […]
Anxiolytic activity of a test compound was quantified using two parameters: a) the percent of total time spent by a rat in one of the two open arms of the apparatus (% open arm time) which was calculated as follows: [formula] • and b) the number of times a rat entered the open arms relative to the total entries into all arms and the center area (% open arm entries), calculated as follows: [formula]
Data were analyzed for statistical significance between drug and vehicle-treated groups via one tailed Mann-Whitney T-Test. […]

[3] = system: serotonin neural pathways; experiment: DOI Headshake Model; format: in vivo; set-up: key: Active: A statistically significant decrease in the number of headshakes induced by the administration of DOI in the mice given the test compound relative to the mice given the control was an indication of modulation of the serotonin neural pathways and thus an indication of an active compound; conditions: DOI-induced headshakes, mice (NIH Swiss; starred compounds also CD-1); for Number of Headshakes, IP Admin: i.p., doses up to 100 mg/kg; for Number of Headshakes, Oral Admin.: doses up to 40 mg/kg
Description: Male CD-1 or NIH-Swiss mice were fasted overnight. The mice were given control vehicle or test compound by the oral or intraperitoneal (i.p.) routes of administration at doses up to 40 mg/kg orally and up to 100 mg/kg i.p. Administration time was denoted as t0. At each of several selected intervals after t0 (at about 45 min, 1 h, 2 h, 4 h, 6 h, 8 h, 24 h after administration), separate groups of mice were given 1-{2,5-dimethoxy-4-iodophenyl]-2-aminopropane (DOI), a known serotonin receptor type-2A agonist, by the intraperitoneal route of administration route. […] (Separate groups of mice were tested at each time interval.) Peak activity time, denoted as tp, was determined as the time of the greatest reduction in the number of DOI-induced headshakes for mice given the test compound compared to the number of headshakes for the mice given the control, measured at the same time interval.
A statistically significant decrease in the number of headshakes induced by the administration of DOI in the mice given the test compound relative to the mice given the control was an indication of modulation of the serotonin neural pathways and thus an indication of an active compound.
In vivo biological activity was measured for select compounds of the present invention as listed in Table 11, using the procedures outlined above. Starred (*) compounds were tested on both male CD-1 mice and NIH Swiss mice, all other compounds were tested using Swiss NIH mice.

[4] = system: cisplatin induced emesis; experiment: Anti-emetic test, cisplatin induced emesis; format: in vivo, shrew; conditions: shrews, 20 mg/kg, administered subcutaneously; statistically significant reduction
Description: The effectiveness of a test compound to inhibit emesis in the shrew were determined according to the procedure described in Darmani, N. A. Serotonin 5-HT3 receptor antagonists prevent cisplatin-induced emesis in Cryptosis parva: a new experimental model of emesis. J Neural. Transm. 1998, 105, 1143-1154.

[5] = system: rats; experiment: Spontaneous Locomotor Activity (SMA) Test; format: in vivo; set-up: key: Increase = statistically significant (Mann Whitney U test p < 0.05) increase in horizontal activity and vertical movements indicating lack of sedation or motor impairment at 10 mg/kg po; conditions: Long-Evans Hooded rats, 10 mg/kg po, 50 minutes after administration; decrease = sedation
Description: as §1, §2
The test apparatus consisted of a plastic cubicle (40.6 cm, length; 40.6 cm, width; 30.5 cm, height) that was placed in the center of a main frame. Photocell sensors (8 beams from front to back and 8 beams from side to side) were built into the sides of the frame for monitoring horizontal movement. The photocells were located at right angles to each other, projecting horizontal infrared beams of light 5 cm apart and 2 cm above the floor to measure horizontal activity, and 5 cm apart and 14 cm above the floor to measure vertical activity. Rats were divided into groups (N=8 to 12). Test compound or vehicle was administered orally by gavage in a dose volume equivalent to 5 mL/kg. At 50 minutes after administration each rat was placed into a separate plastic cubicle and spontaneous exploratory activity was recorded for 10 minutes. Horizontal and vertical movements of the rats were recorded by counting the number of times the beams of light were interrupted (horizontal and vertical counts). Collection of the data and preliminary data analysis was automated. A drug-induced decrease in spontaneous horizontal or vertical motor activity was regarded as an indication of sedation.
HA data were analyzed for statistical significance between drug and vehicle-treated groups that were administered either the vehicle or each dose of the test compound by a one-way analysis of variance. Then Dunnett's multiple comparison method was used to test for a reduction (p<0.05, 1-tailed) in the average number of HA counts or VM counts in drug-treated groups, compared to a concurrently run vehicle-treated group. If the probability was less than 5% (p<0.05) that a decrease in HA and/or VM in the drug-treated group compared to a concurrently run vehicle-treated group was due to chance, then the dose of the test compound was considered to have sedative activity. Mann-Whitney T-Test is used in cases where the distribution of the data is non-gaussian.

Row | Structure (SMILES) | Senktide Headshake Assay [1] | Increase % Open Arm Entries [2] | Increase % Open Arm Time [2] | Number of Headshakes, IP Admin [3] | Number of Headshakes, Oral Admin. [3] | cisplatin induced emesis in vivo test (reduction in cisplatin induced retching behavior) [4] | SMA Horizontal Activity [5] | SMA Vertical Movement [5]
1 | O=C(CC1CCN(C(=O)c2cccc(C#Cc3ccccn3)c2)CC1)Nc1ccccc1 [Compound 10, N-phenyl-1-[3-(2-pyridinylethynyl)benzoyl]4-piperdineacetamide] | Active | Active | Active | Active | Active | active | Increase | Increase
2 | O=C(CC1CCN(C(=O)c2ccc(/C=C\c3ccncc3)cc2)CC1)Nc1ccccc1 [Compound 73, N-phenyl-1-[4-[(Z)-2-(4-pyridinyl)ethenyl]benzoyl]-4-piperidineacetamide] |  |  |  | Active | Active |  |  | 
3 | O=C(CC1CCN(C(=O)c2cccc(C#Cc3ccccn3)c2)CC1)Nc1ccc(O)cc1 [Compound 75, N-(4-hydroxyphenyl)-1-[3-(2-pyridinylethynyl)benzoyl]-4-piperidineacetamide] |  | Active | Active | Active | Active |  | Increase | Increase
4 | O=C(CN1CCN(C(=O)c2cccc(C#Cc3ccccn3)c2)CC1)Nc1ccccc1 [Compound 106, N-phenyl-4-[3-(2-pyridinylethynyl)benzoyl]-1-piperazineacetamide] |  |  |  | Active | Active |  |  | 
5 | O=C(CN1CCN(C(=O)c2cccc(NCc3cc(C(F)(F)F)cc(C(F)(F)F)c3)c2)CC1)Nc1ccccc1 [Compound 501, 4-[3-[[[3,5-bis(trifluoromethyl)phenyl]methyl]amino]benzoyl]-N-phenyl-1-piperazineacetamide] |  |  |  |  | Inactive |  |  | 
